“And” between values parts separate entries of the source, which are not always exact repeats. Equal values may be shown once. Inconclusive results and toxic doses are left out. Rule as the data show it: active = T/C of 150% or more; inactive = T/C below 125%.
Tested on: L1210 leukemia ip in BDF1 mice, survival T/C
Experiment: NCI In Vivo Anticancer Drug Screen. Data for tumor model L1210 Leukemia (intraperitoneal) in B6D2F1 (BDF1) mice
Details: endpoint: mean survival time, higher = longer survival
Method in brief: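 Survival endpoint. Drug-treated group vs vehicle group, expressed as T divided by C. Tumor passaged by transplantation.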

[1] = dose: 100.0 mg/kg/injection, schedule: Q01DX009 (ip), vehicle: Klucel (hydroxypropylcellulose) (HPC)
[2] = dose: 100.0 mg/kg/injection, schedule: Q04DX003 (ip), vehicle: Klucel (hydroxypropylcellulose) (HPC)
[3] = dose: 200.0 mg/kg/injection, schedule: Q01DX009 (ip), vehicle: Klucel (hydroxypropylcellulose) (HPC)
[4] = dose: 200.0 mg/kg/injection, schedule: Q04DX003 (ip), vehicle: Klucel (hydroxypropylcellulose) (HPC)
[5] = dose: 400.0 mg/kg/injection, schedule: Q01DX009 (ip), vehicle: Klucel (hydroxypropylcellulose) (HPC)
[6] = dose: 400.0 mg/kg/injection, schedule: Q04DX003 (ip), vehicle: Klucel (hydroxypropylcellulose) (HPC)
[7] = dose: 100.0 mg/kg/injection, schedule: Q01DX001 (ip), vehicle: saline
[8] = dose: 200.0 mg/kg/injection, schedule: Q01DX001 (ip), vehicle: saline
[9] = dose: 400.0 mg/kg/injection, schedule: Q01DX001 (ip), vehicle: saline
[10] = dose: 100.0 mg/kg/injection, schedule: Q04DX002 (ip), vehicle: saline with Tween-80
[11] = dose: 200.0 mg/kg/injection, schedule: Q04DX002 (ip), vehicle: saline with Tween-80
[12] = dose: 100.0 mg/kg/injection, schedule: Q04DX003 (ip), vehicle: saline with Tween-80
[13] = dose: 200.0 mg/kg/injection, schedule: Q04DX003 (ip), vehicle: saline with Tween-80
[14] = dose: 100.0 mg/kg/injection, schedule: Q01DX009 (ip), vehicle: saline with Tween-80
[15] = dose: 100.0 mg/kg/injection, schedule: Q04DX003 (ip), vehicle: saline
[16] = dose: 200.0 mg/kg/injection, schedule: Q01DX009 (ip), vehicle: saline with Tween-80
[17] = dose: 400.0 mg/kg/injection, schedule: Q01DX009 (ip), vehicle: saline with Tween-80
[18] = dose: 100.0 mg/kg/injection, schedule: Q01DX001 (ip), vehicle: carboxymethylcellulose (CMC)
[19] = dose: 200.0 mg/kg/injection, schedule: Q01DX001 (ip), vehicle: carboxymethylcellulose (CMC)
[20] = dose: 400.0 mg/kg/injection, schedule: Q01DX001 (ip), vehicle: carboxymethylcellulose (CMC)

Measured: T/C

Nc1ncc([N+](=O)[O-])cn1
inactive: [1] 107 % of control | [2] 103 % of control | [3] 91 % of control | [4] 97 % of control | [5] 100 % of control | [6] 94 % of control

OC1(C#CI)CCCCC1
inactive: [1] 100 % of control | [3] 96 % of control

CC[CH2][Pb]([CH2]CC)([CH2]CC)[O]C(=O)C1CCCCC1
inactive: dose: 1.5 mg/kg/injection, schedule: Q01DX009 (ip), vehicle: saline with Tween-80 100 % of control | dose: 1.5 mg/kg/injection, schedule: Q04DX003 (ip), vehicle: saline with Tween-80 106 % of control | dose: 3.0 mg/kg/injection, schedule: Q01DX009 (ip), vehicle: saline with Tween-80 100 % of control | dose: 3.0 mg/kg/injection, schedule: Q04DX003 (ip), vehicle: saline with Tween-80 116 % of control | dose: 6.0 mg/kg/injection, schedule: Q01DX009 (ip), vehicle: saline with Tween-80 104 % of control | dose: 6.0 mg/kg/injection, schedule: Q04DX003 (ip), vehicle: saline with Tween-80 104 % of control

NCC1OC(n2cnc3c(=O)[nH]c(N)nc32)C(O)C1O (stereo unspecified)
inactive: [7] 101 % of control | [8] 95 % of control | [9] 91 % of control

O=C(O)C(Br)CO (stereo unspecified) (tested in a mixture with another compound)
inactive: dose: 100.0 mg/kg/injection, schedule: Q01DX001 (ip), vehicle: acetone 93 % of control | dose: 200.0 mg/kg/injection, schedule: Q01DX001 (ip), vehicle: acetone 95 % of control

N#Cc1c(F)c(F)c(C#N)c(F)c1F
inactive: dose: 1.25 mg/kg/injection, schedule: Q01DX009 (ip), vehicle: Klucel (hydroxypropylcellulose) (HPC) 97 % of control | dose: 2.5 mg/kg/injection, schedule: Q01DX009 (ip), vehicle: Klucel (hydroxypropylcellulose) (HPC) 95 % of control | dose: 5.0 mg/kg/injection, schedule: Q01DX001 (ip), vehicle: saline 98 % of control | dose: 5.0 mg/kg/injection, schedule: Q01DX009 (ip), vehicle: Klucel (hydroxypropylcellulose) (HPC) 103 % of control | dose: 10.0 mg/kg/injection, schedule: Q01DX001 (ip), vehicle: saline 102 % of control | dose: 10.0 mg/kg/injection, schedule: Q01DX009 (ip), vehicle: Klucel (hydroxypropylcellulose) (HPC) 104 % of control

CCCCOC(=Nc1ccccc1)N(c1ccccc1)c1ccccc1
inactive: dose: 222.0 mg/kg/injection, schedule: Q01DX Z (ip), vehicle: methylcellulose (MC) 88 % of control | dose: 333.0 mg/kg/injection, schedule: Q01DX Z (ip), vehicle: methylcellulose (MC) 94 % of control | dose: 500.0 mg/kg/injection, schedule: Q01DX Z (ip), vehicle: methylcellulose (MC) 98 % of control

CCCCOC1=CC2C(=CCC3C2(C)C(=O)CC2(C)C(C(C)(O)C(=O)/C=C/C(C)(C)O)C(O)CC32C)C(C)(C)C1=O (stereo unspecified)
inactive: dose: 50.0 mg/kg/injection, schedule: Q04DX002 (ip), vehicle: saline with Tween-80 97 % of control | [10] 97 % of control | [11] 101 % of control

CCOC(=O)c1cnc(NN)nc1Nc1ccccc1Cl
inactive: [12] 92 % of control | [13] 96 % of control

C=CCC(C)/C(C)=C(/C#N)C(=O)OCC (stereo unspecified)
inactive: dose: 75.0 mg/kg/injection, schedule: Q01DX001 (ip), vehicle: other 107 % of control | dose: 150.0 mg/kg/injection, schedule: Q01DX001 (ip), vehicle: other 100 % of control

O=C(NCCCl)N1C(=O)NC(=O)C1(c1ccccc1)c1ccccc1
inactive: [14] 96 % of control | [15] 88 % of control | [16] 98 % of control | dose: 200.0 mg/kg/injection, schedule: Q04DX003 (ip), vehicle: saline 91 % of control | [17] 96 % of control | dose: 400.0 mg/kg/injection, schedule: Q04DX003 (ip), vehicle: saline 98 % of control

CC1CCNCC1
inactive: dose: 100.0 mg/kg/injection, schedule: Q04DX002 (ip), vehicle: saline 105 % of control | dose: 200.0 mg/kg/injection, schedule: Q04DX002 (ip), vehicle: saline 102 % of control | dose: 400.0 mg/kg/injection, schedule: Q04DX002 (ip), vehicle: saline 94 % of control

O=[N+]([O-])c1cccc(S(=O)(=O)NNc2cc(C(F)(F)F)ccc2Cl)c1
inactive: dose: 100.0 mg/kg/injection, schedule: Q01DX001 (ip), vehicle: Klucel (hydroxypropylcellulose) (HPC) 93 % of control | [2] 92 % of control | dose: 200.0 mg/kg/injection, schedule: Q01DX001 (ip), vehicle: Klucel (hydroxypropylcellulose) (HPC) 94 % of control | [4] 87 % of control | dose: 400.0 mg/kg/injection, schedule: Q01DX001 (ip), vehicle: Klucel (hydroxypropylcellulose) (HPC) 98 % of control | [6] 100 % of control

CC[n+]1ccc2cc(OC)c(OC)cc2c1Cc1ccc(OC)c(OC)c1
inactive: dose: 25.0 mg/kg/injection, schedule: Q01DX009 (ip), vehicle: saline 94 % of control | dose: 50.0 mg/kg/injection, schedule: Q01DX009 (ip), vehicle: saline 115 % of control | [15] 98 % of control

CCOC(=O)c1cnc2ccc(OC)cc2c1Cl
inactive: [14] 95 % of control | [12] 107 % of control | [16] 101 % of control | [13] 104 % of control | [17] 97 % of control | dose: 400.0 mg/kg/injection, schedule: Q04DX003 (ip), vehicle: saline with Tween-80 96 % of control

CC(=O)OCCC/C(=C\c1ccc(C)cc1)[N+](=O)[O-]
inactive: [18] 88 % of control | [19] 88 % of control | [20] 88 % of control

S=C(NCCN1CCCC1)Nc1ccccc1
inactive: dose: 25.0 mg/kg/injection, schedule: Q01DX009 (ip), vehicle: Klucel (hydroxypropylcellulose) (HPC) 119 % of control | dose: 50.0 mg/kg/injection, schedule: Q01DX009 (ip), vehicle: Klucel (hydroxypropylcellulose) (HPC) 104 % of control | [1] 97 % of control and 114 % of control

COc1ccc(NCc2ccccc2C#N)c(OC)c1
inactive: [2] 103 % of control | [4] 108 % of control | [6] 103 % of control

Nc1nc(=O)n(C2CCCO2)cc1Br (stereo unspecified)
inactive: [7] 100 % of control | [8] 103 % of control | [9] 87 % of control

O=C(O)CNCCN1CC(=O)N(c2ccccc2)C1=S
inactive: [18] 93 % of control | dose: 100.0 mg/kg/injection, schedule: Q01DX009 (ip), vehicle: carboxymethylcellulose (CMC) 94 % of control and 95 % of control | dose: 100.0 mg/kg/injection, schedule: Q04DX002 (ip), vehicle: carboxymethylcellulose (CMC) 97 % of control and 98 % of control | dose: 100.0 mg/kg/injection, schedule: Q04DX003 (ip), vehicle: carboxymethylcellulose (CMC) 98 % of control | [19] 98 % of control | dose: 200.0 mg/kg/injection, schedule: Q01DX009 (ip), vehicle: carboxymethylcellulose (CMC) 94 % of control and 90 % of control | dose: 200.0 mg/kg/injection, schedule: Q04DX002 (ip), vehicle: carboxymethylcellulose (CMC) 91 % of control | dose: 200.0 mg/kg/injection, schedule: Q04DX003 (ip), vehicle: carboxymethylcellulose (CMC) 93 % of control | [20] 95 % of control | dose: 400.0 mg/kg/injection, schedule: Q01DX009 (ip), vehicle: carboxymethylcellulose (CMC) 86 % of control | dose: 400.0 mg/kg/injection, schedule: Q04DX002 (ip), vehicle: carboxymethylcellulose (CMC) 97 % of control and 98 % of control | dose: 400.0 mg/kg/injection, schedule: Q04DX003 (ip), vehicle: carboxymethylcellulose (CMC) 89 % of control

CCC(=O)c1cc(O)ccc1O
inactive: dose: 100.0 mg/kg/injection, schedule: Q04DX003 (ip), vehicle: other 93 % of control | dose: 200.0 mg/kg/injection, schedule: Q04DX003 (ip), vehicle: other 98 % of control

Cn1c2ccccc2c2nnc(NCCCO)nc21
inactive: [10] 86 % of control | [11] 104 % of control | dose: 400.0 mg/kg/injection, schedule: Q04DX002 (ip), vehicle: saline with Tween-80 97 % of control

O=c1[nH]c2sccc2c(=O)n1OS(=O)(=O)c1ccccc1
inactive: [1] 105 % of control | [3] 122 % of control | [5] 93 % of control

From PubChem BioAssay AID248 (DTP/NCI, 2004)
